The values that follow come from article PMC4994063, “Harnessing Fluorine–Sulfur Contacts and Multipolar Interactions for the Design of p53 Mutant Y220C Rescue Drugs” (ACS Chemical Biology, 2016).

SMILES strings stand for the structures. pKd: −log10 of the molar value. Read-outs that look alike come from different tables or passages of the source.

Assay [1] addresses T1, p53-Y220C DNA-binding domain (DBD) (Homo sapiens, UniProt P04637, M133L/N239Y/N268D/V203A/Y220C).
T1 construct: Stabilized p53-Y220C DBD (residues 94–312) was expressed and purified as previously described; made in house
Kind of assay: Differential scanning fluorimetry (DSF), stabilization of p53-Y220C DBD. The conditions noted are these: 8 μM stabilized p53-Y220C DBD, 25 mM KPi pH 7.2, 5% DMSO, triplicate; for ΔTm at 125 µM: pH 7.2, compound 125 μM; for DSF ΔTm at 125 μM: compound 125 μM. Here is the method:
We tested […]083 (1) and analogues 2-6 for their stabilization of the p53-Y220C DNA-binding domain (DBD) using differential scanning fluorimetry (DSF; Table 1). The N-2,2,2-trifluoroethyl substituted carbazoles 4 and 6 increased stability of the p53-Y220C DBD by 1.2 K at a compound concentration of 125 μM, showing a clear improvement over their N-ethyl substituted counterparts […]083 (1) and 5 (ΔTm = 0.8 K and ΔTm = 0.6 K, respectively). […] DSF was performed as described.[26] Briefly, melting temperatures (Tm) were determined using 8 μM protein (stabilized p53-Y220C DBD) and 10 × SYPRO orange (Life Technologies) in a 25 mM KPi (pH 7.2), 150 mM NaCl, and 1 mM TCEP assay buffer at a final DMSO concentration of 5% (v/v). ΔTm values were calculated as ΔTm= Tm (protein + compound) - Tm (protein)). All samples were measured in triplicate.
Background: In DSF a fluorescence change marks the thermal transition of the protein.

Assay [2] concerns the target T2, p53-Y220C DBD (Homo sapiens, UniProt P04637, M133L/N239Y/N268D/V203A/Y220C).
T2 construct: Stabilized p53-Y220C DBD (residues 94–312) was expressed and purified as previously described; made in house
Put plainly: Isothermal titration calorimetry (ITC). It is filed as binding. As to conditions: for pKd: 50 μM protein, 25 mM KPi pH 7.2, 150 mM NaCl, 1 mM TCEP, 5% DMSO; for increase in affinity (ITC KD) compared to the nonfluorinated parent compounds (1 and 5): 4 vs 1, 6 vs 5; for improvement of free energy of binding compared with parent compounds: at 293 K, vs PhiKan083 (1) and 5. Here is the method: We tested PhiKan083 (1) and analogues 2–6 for their stabilization of the p53-Y220C DNA-binding domain (DBD) using differential scanning fluorimetry (DSF; Table 1). The N-2,2,2-trifluoroethyl substituted carbazoles 4 and 6 increased stability of the p53-Y220C DBD by 1.2 K at a compound concentration of 125 μM, showing a clear improvement over their N-ethyl substituted counterparts PhiKan083 (1) and 5 (ΔTm = 0.8 K and ΔTm = 0.6 K, respectively).
ITC experiments were conducted as described.[26] Samples for the cell unit contained 50 μM protein in a 25 mM KPi (pH 7.2), 150 mM NaCl, 1 mM TCEP, and 5% (v/v) DMSO assay buffer. The syringe contained 2–5 mM compound in the same assay buffer.
(In general: ITC needs no label: the signal is the heat of the interaction.)

The target of assay [3] is T2, p53-Y220C DBD. More on the design: method as in Boeckler et al. (24). The conditions noted are these: data taken from the literature; ref Boeckler et al. (24); read-out: ITC KD; cited from earlier work.

By ΔTm is commonly meant the shift of the melting midpoint relative to a reference. What is called pKd is the Kd on a negative log10 scale, so that one unit is a factor of ten. As to `CN(C)Cc1ccc2c(c1)c1ccccc1n2CC(F)(F)F` [Compound 6, 1-(9-(2,2,2-Trifluoroethyl)-9H-carbazol-3-yl)-N,N-dimethylmethanamine], the ΔTm at 125 µM in assay [1] amounted to 1.2 °C. Also, at p53-Y220C DBD [2], the “ligand efficiency (LE)” value stood at 0.3 kcal mol^–1 atom^–1; the pKd is 4.43; the “increase in affinity (ITC KD) compared to the nonfluorinated parent compounds (1 and 5)” value was found to be 5 fold; the “improvement of free energy of binding compared with parent compounds” value is listed as “approximately −0.9 kcal/mol”.

For `CNCc1ccc2c(c1)c1ccccc1n2CC(F)(F)F` [Compound 4, 1-(9-(2,2,2-Trifluoroethyl)-9H-carbazol-3-yl)-N-methylmethanamine], in assay [1], the ΔTm at 125 µM amounted to 1.2 °C. For the same compound, on p53-Y220C DBD [2], the “ligand efficiency (LE)” value is on record as 0.3 kcal mol^–1 atom^–1; the pKd is 4.55; the “increase in affinity (ITC KD) compared to the nonfluorinated parent compounds (1 and 5)” value is 5 fold; the “improvement of free energy of binding compared with parent compounds” value was “approximately −0.9 kcal/mol”.

As for `CCn1c2ccccc2c2cc(CN(C)C)ccc21` [Compound 5, 1-(9-Ethyl-9H-carbazol-3-yl)-N,N-dimethylmethanamine], the ΔTm at 125 µM in assay [1] worked out at 0.6 °C. The pKd at p53-Y220C DBD [2] was 3.77. Besides, at p53-Y220C DBD [2] (5 vs 1), the “drop in affinity due to additional methyl group at the amine” value worked out at 30%.

Take `CNCc1ccc2c(c1)c1ccccc1n2CC(F)F` [Compound 3, 1-(9-(2,2-Difluoroethyl)-9H-carbazol-3-yl)-N-methylmethanamine]: in assay [1], the “DSF ΔTm at 125 μM” value is given as 0.3 K and the ΔTm at 125 µM was 0.4 °C. Moreover, the pKd on p53-Y220C DBD [2] is 4.00.

On to `CCn1c2ccccc2c2cc(CNC)ccc21` [Compound 1, 1-(9-ethyl-9H-carbazole-3-yl)-N-methylmethanamine], for which the pKd on p53-Y220C DBD [3] was 3.91.

Take `CNCc1ccc2c(c1)c1ccccc1n2CCF` [Compound 2, 1-(9-(2-Fluoroethyl)-9H-carbazol-3-yl)-N-methylmethanamine]: in assay [1], the “DSF ΔTm at 125 μM” value worked out at 0.4 K and the ΔTm at 125 µM is 0.3 °C. Besides, the pKd on p53-Y220C DBD [2] is 3.86.
